Biological target: T1, hTSHR (Homo sapiens, UniProt P16473)
T1 construct: expressed in transfected cells
Assay: hTSHR TR-FRET cAMP Assay (inhibition of M22-stimulated cAMP production)
Type: cell-based
Settings: Expi293F Inducible cells stably expressing hTSHR; cAMP HTRF; stimulated with EC80 of anti-TSHR antibody M22; 15 min compound preincubation, 30 min at 37° C.; read-out: Activity (IC50 bins)
In short: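 Readout was a cAMP HTRF ratio of 655/620 nm after lysis, scaled between the EC80 M22 signal (0% inhibition) and no-agonist vehicle (100%). Frozen induced Expi293F-hTSHR cells saw test compounds (0.5% DMSO) for 15 min at 37 °C before 30 min of M22 stimulation at EC80.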

T1 sequence (P16473 21-764): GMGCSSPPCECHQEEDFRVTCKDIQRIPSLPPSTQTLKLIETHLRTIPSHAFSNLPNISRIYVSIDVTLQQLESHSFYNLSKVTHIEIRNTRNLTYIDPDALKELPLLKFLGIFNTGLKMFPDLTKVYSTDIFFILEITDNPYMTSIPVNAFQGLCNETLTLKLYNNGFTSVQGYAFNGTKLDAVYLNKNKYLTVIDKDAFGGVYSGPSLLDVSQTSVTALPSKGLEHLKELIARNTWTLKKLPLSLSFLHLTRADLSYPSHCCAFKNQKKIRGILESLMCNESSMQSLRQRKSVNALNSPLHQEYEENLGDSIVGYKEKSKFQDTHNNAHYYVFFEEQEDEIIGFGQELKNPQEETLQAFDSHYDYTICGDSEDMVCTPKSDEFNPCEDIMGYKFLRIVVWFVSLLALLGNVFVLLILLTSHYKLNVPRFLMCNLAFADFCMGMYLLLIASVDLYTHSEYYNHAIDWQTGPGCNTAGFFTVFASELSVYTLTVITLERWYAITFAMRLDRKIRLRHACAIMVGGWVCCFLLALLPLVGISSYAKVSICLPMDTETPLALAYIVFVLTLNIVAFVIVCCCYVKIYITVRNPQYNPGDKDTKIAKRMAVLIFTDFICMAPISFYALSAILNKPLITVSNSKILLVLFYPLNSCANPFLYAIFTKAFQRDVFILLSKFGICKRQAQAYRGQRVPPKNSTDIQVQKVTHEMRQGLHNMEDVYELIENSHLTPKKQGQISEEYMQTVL

IC50 [nM] | SMILES
100 to 1000 | C[C@@H](c1cccc(OC(F)(F)F)c1)n1c(=O)cnc2cc(NC(=O)NCC(C)(C)C)ccc21 [Example 201, (S)-1-neopentyl-3-(2-oxo-1-(1-(3-(trifluoromethoxy)phenyl)ethyl)-1,2-dihydroquinoxalin-6-yl)urea]
< 100 | C[C@@H](c1cccc(OC(F)(F)F)c1)n1c(=O)cnc2cc(NC(=O)CCc3cccc(C(F)(F)F)c3)ccc21 [Example 202, (S)-N-(2-oxo-1-(1-(3-(trifluoromethoxy)phenyl)ethyl)-1,2-dihydroquinoxalin-6-yl)-3-(3-(trifluoromethyl)phenyl) propanamide]
100 to 1000 | C[C@@H](c1cccc(OC(F)(F)F)c1)n1c(=O)cnc2cc(NC(=O)NC3(C)CCCC3)ccc21 [Example 203, (S)-1-(1-methylcyclopentyl)-3-(2-oxo-1-(1-(3-(trifluoromethoxy)phenyl)ethyl)-1,2-dihydroquinoxalin-6-yl)urea]
100 to 1000 | C[C@@H](c1cccc(OC(F)(F)F)c1)n1c(=O)cnc2cc(NC(=O)NC3CC(F)(F)C3)ccc21 [Example 204, (S)-1-(3,3-difluorocyclobutyl)-3-(2-oxo-1-(1-(3-(trifluoromethoxy)phenyl)ethyl)-1,2-dihydroquinoxalin-6-yl)urea]
100 to 1000 | C[C@@H](c1cccc(OC(F)(F)F)c1)n1c(=O)cnc2cc(NC(=O)NC3CCC3)ccc21 [Example 205, (S)-1-cyclobutyl-3-(2-oxo-1-(1-(3-(trifluoromethoxy)phenyl)ethyl)-1,2-dihydroquinoxalin-6-yl)urea]
100 to 1000 | C[C@@H](c1cccc(OC(F)(F)F)c1)n1c(=O)cnc2cc(NC(=O)NC34CC(C3)C4)ccc21 [Example 206, (S)-1-(bicycl[1.1.1]pentan-1-yl)-3-(2-oxo-1-(1-(3-(trifluoromethoxy)phenyl)ethyl)-1,2-dihydroquinoxalin-6-yl)urea]
100 to 1000 | CC(C)CCNC(=O)Nc1ccc2c(c1)ncc(=O)n2[C@@H](C)c1cccc(OC(F)(F)F)c1 [Example 207, (S)-1-isopentyl-3-(2-oxo-1-(1-(3-(trifluoromethoxy)phenyl)ethyl)-1,2-dihydroquinoxalin-6-yl)urea]
100 to 1000 | C[C@@H](c1cccc(OC(F)(F)F)c1)n1c(=O)cnc2cc(NC(=O)NC(C)(C)C(F)(F)F)ccc21 [Example 208, (S)-1-(2-oxo-1-(1-(3-(trifluoromethoxy)phenyl)ethyl)-1,2-dihydroquinoxalin-6-yl)-3-(1,1,1-trifluoro-2-methylpropan-2-yl)urea]
100 to 1000 | Cc1c(NC(=O)NC(C)(C)C)ccc2c1ncc(=O)n2[C@@H](C)c1cccc(OC(F)(F)F)c1 [Example 209, (S)-1-(tert-butyl)-3-(5-methyl-2-oxo-1-(1-(3-(trifluoromethoxy)phenyl)ethyl)-1,2-dihydroquinoxalin-6-yl)urea]
< 100 | C[C@@H](c1cccc(OC(F)(F)F)c1)n1c(=O)cnc2cc(NC(=O)NC3(C)CCCCC3)ccc21 [Example 210, (S)-1-(1-methylcyclohexyl)-3-(2-oxo-1-(1-(3-(trifluoromethoxy)phenyl)ethyl)-1,2-dihydroquinoxalin-6-yl)urea]
< 100 | C[C@@H](c1cccc(OC(F)(F)F)c1)n1c(=O)cnc2cc(NC(=O)NC34CCC(CC3)C4)ccc21 [Example 211, (S)-1-(bicyclo[2.2.1]heptan-1-yl)-3-(2-oxo-1-(1-(3-(trifluoromethoxy)phenyl)ethyl)-1,2-di-hydroquinoxalin-6-yl)urea]
> 1000 | C[C@@H](c1cccc(OC(F)(F)F)c1)n1c(=O)cnc2cc(NC(=O)NC3(C)COC3)ccc21 [Example 212]
< 100 | C[C@@H](c1cccc(OC(F)(F)F)c1)n1c(=O)cnc2cc(NC(=O)NC34CCC(C3)C4)ccc21 [Example 213, (S)-1-(bicyclo[2.1.1]hexan-1-yl)-3-(2-oxo-1-(1-(3-(trifluoromethoxy)phenyl)ethyl)-1,2-dihydroquinoxalin-6-yl)urea]
100 to 1000 | C[C@@H](c1cccc(OC(F)(F)F)c1)n1c(=O)cnc2cc(NC(=O)NC3(C(F)(F)F)CCC3)ccc21 [Example 214, (S)-1-(2-oxo-1-(1-(3-(trifluoromethoxy)phenyl)ethyl)-1,2-dihydroquinoxalin-6-yl)-3-(1-(trifluoromethyl)cyclobutyl)urea]
100 to 1000 | COCC1(NC(=O)Nc2ccc3c(c2)ncc(=O)n3[C@@H](C)c2cccc(OC(F)(F)F)c2)CCC1 [Example 215, (S)-1-(1-(methoxymethyl)cyclobutyl)-3-(2-oxo-1-(1-(3-(tri-fluoromethoxy)phenyl)ethyl)-1,2-dihydroquinoxalin-6-yl)urea]
100 to 1000 | C[C@@H](c1cccc(OC(F)(F)F)c1)n1c(=O)cnc2cc(NC(=O)NC3CCC(F)(F)CC3)ccc21 [Example 216]

IC50 [nM] | SMILES
100 to 1000 | C[C@@H](c1cccc(OC(F)(F)F)c1)n1c(=O)cnc2cc(NC(=O)NC3(C(F)(F)F)CCCC3)ccc21 [Example 217]
100 to 1000 | C[C@@H](c1cccc(OC(F)(F)F)c1)n1c(=O)cnc2c(Cl)c(NC(=O)NC(C)(C)C)ccc21 [Example 218, (S)-1-(tert-butyl)-3-(5-chloro-2-oxo-1-(1-(3-(trifluoromethoxy)phenyl)ethyl)-1,2-dihydroquinoxalin-6-yl)urea]
100 to 1000 | C[C@@H](c1cccc(OC(F)(F)F)c1)n1c(=O)cnc2cc(NC(=O)NC3(C)CC(F)(F)C3)ccc21 [Example 221, (S)-1-(3,3-difluoro-1-methylcyclobuty 1)-3-(2-oxo-1-(1-(3-(trifluoromethoxy)phenyl)ethyl)-1,2-dihydroquinoxalin-6-yl)urea]
100 to 1000 | C[C@@H](c1cccc(OC(F)(F)F)c1)n1c(=O)cnc2cc(NC(=O)NC3(C(F)(F)F)COC3)ccc21 [Example 222]
100 to 1000 | C[C@@H](c1cccc(OC(F)(F)F)c1)n1c(=O)cnc2cc(NC(=O)N[C@H]3C[C@H](C(F)(F)F)C3)ccc21 [Example 223, 1-(2-oxo-1-((S)-1-(3-(trifluoromethoxy)phenyl)ethyl)-1,2-dihydroquinoxalin-6-yl)-3-((1r,3R)-3-(trifluoromethyl)cyclobutyl)urea]
100 to 1000 | C[C@@H](c1cccc(OC(F)(F)F)c1)n1c(=O)cnc2cc(NC(=O)N[C@H]3C[C@@H](C(F)(F)F)C3)ccc21 [Example 224, 1-(2-oxo-1-((S)-1-(3-(trifluoromethoxy)phenyl)ethyl)-1,2-dihydroquinoxalin-6-yl)-3-((1s,3S)-3-(trifluoromethyl)cyclobutyl)urea]
100 to 1000 | C[C@@H](c1cccc(OC(F)(F)F)c1)n1c(=O)cnc2cc(NC(=O)NC3(C(F)(F)F)CC(F)(F)C3)ccc21 [Example 225, (S)-1-(3,3-difluoro-1-(trifluoromethyl)cyclobutyl)-3-(2-oxo-1-(1-(3-(trifluoromethoxy)phenyl)ethyl)-1,2-dihydroquinoxalin-6-yl)urea]
< 100 | C[C@H]1Oc2cc(NC(=O)NC3(C)CCC3)ccc2N(Cc2cccc(C(F)(F)F)n2)C1=O [Example 226, 1-[(2R)-2-methyl-3-oxo-4-{[6-(trifluoromethyl)pyridin-2-yl]methyl}-2H-1,4-benzoxazin-7-yl]-3-(1-methylcyclobutyl)urea]
< 100 | C[C@H]1Oc2cc(NC(=O)NC3(C)CCCC3)ccc2N(Cc2cccc(C(F)(F)F)n2)C1=O [Example 227, (R)-1-(2-methyl-3-oxo-4-((6-(trifluoromethyl)pyridin-2-yl)methyl)-3,4-dihydro-2H-benzo[b][1,4]oxazin-7-yl)-3-(1-methylcyclopentyl) urea]
< 100 | C[C@H]1Oc2cc(NC(=O)NC3CCCCC3)ccc2N(Cc2cccc(C(F)(F)F)n2)C1=O [Example 228, (R)-1-cyclohexyl-3-(2-methyl-3-oxo-4-((6-(trifluoromethyl)pyridin-2-yl)methyl)-3,4-dihydro-2H-benzo[b][1,4]oxazin-7-yl)urea]
< 100 | C[C@H]1Oc2cc(NC(=O)NC3(C)CCCCC3)ccc2N(Cc2cccc(C(F)(F)F)n2)C1=O [Example 229, (R)-1-(2-methyl-3-oxo-4-((6-(trifluoromethyl)pyridin-2-yl)methyl)-3,4-dihydro-2H-benzo[b][1,4]oxazin-7-yl)-3-(1-methylcyclohexyl) urea]
100 to 1000 | C[C@H]1Oc2cc(NC(=O)NC3CC4CC4C3)ccc2N(Cc2cccc(C(F)(F)F)n2)C1=O (stereo partly drawn) [Example 230, 1-(bicyclo[3.1.0]hexan-3-yl)-3-((R)-2-methyl-3-oxo-4-((6-(trifluoromethyl)pyridin-2-yl)methyl)-3,4-dihydro-2H-benzo[b][1,4]oxazin-7-yl)urea]
100 to 1000 | C[C@H]1Oc2cc(NC(=O)NC3(C)CC(F)(F)C3)ccc2N(Cc2cccc(C(F)(F)F)n2)C1=O [Example 231, (R)-1-(3,3-difluoro-1-methylcyclobutyl)-3-(2-methyl-3-oxo-4-((6-(trifluoromethyl)pyridin-2-yl)methyl)-3,4-dihydro-2H-benzo[b][1,4]oxazin-7-yl)urea]
100 to 1000 | C[C@H]1Oc2cc(NC(=O)NC3(C(F)(F)F)CCC3)ccc2N(Cc2cccc(C(F)(F)F)n2)C1=O [Example 232, (R)-1-(2-methyl-3-oxo-4-((6-(trifluoromethyl)pyridin-2-yl)methyl)-3,4-dihydro-2H-benzo[b][1,4]oxazin-7-yl)-3-(1-(trifluoromethyl)cyclobutyl)urea]
100 to 1000 | COCC1(NC(=O)Nc2ccc3c(c2)O[C@H](C)C(=O)N3Cc2cccc(C(F)(F)F)n2)CCC1 [Example 233, (R)-1-(1-(methoxymethyl)cyclobutyl)-3-(2-methyl-3-oxo-4-((6-(trifluoromethyl)pyridin-2-yl)methyl)-3,4-dihydro-2H-benzo[b][1,4]oxazin-7-yl)urea]
< 100 | C[C@H]1Oc2cc(NC(=O)NC3(C(F)(F)F)CCCC3)ccc2N(Cc2cccc(C(F)(F)F)n2)C1=O [Example 234, (R)-1-(2-methyl-3-oxo-4-((6-(trifluoromethyl)pyridin-2-yl)methyl)-3,4-dihydro-2H-benzo[b][1,4]oxazin-7-yl)-3-(1-(trifluoromethyl)cyclopentyl)urea]
